Positions of bridges follow the written chain, without caps; N, C: chain ends. Non-standard residues stand in square brackets, D forms with d. Residues, ends and D or L forms follow the SMILES beside them. ξ: configuration not given here. Bip = N[C@@H](Cc1ccc(-c2ccccc2)cc1)C(=O)O; Phe(3-Cl) = N[C@@H](Cc1cccc(Cl)c1)C(=O)O; 1Nal = N[C@@H](Cc1cccc2ccccc12)C(=O)O; NMeR = CN[C@@H](CCCNC(=N)N)C(=O)O; NMeF = CN[C@@H](Cc1ccccc1)C(=O)O; ξW = NC(Cc1c[nH]c2ccccc12)C(=O)O; NMeA = CN[C@@H](C)C(=O)O; Nle = CCCC[C@H](N)C(=O)O; Abu = CC[C@H](N)C(=O)O; Dap = NC[C@H](N)C(=O)O; Sar = CNCC(=O)O
Biological target: T1, human PD-1 (Jurkat-PD-1 cells) / PE-labeled human PD-L1-Ig (Homo sapiens, UniProt Q15116)
T1 construct: expressed in transfected cells; host or cells: Jurkat cell line over-expressing human PD-1
Assay: Jurkat-PD-1 Cell Binding High-Content Screening Assay (CBA); Jurkat hPD1-PDL1 assay
Settings: Jurkat cell line over-expressing human PD-1; PE-labeled PD-L1-Ig 20 nM final; compound incubated 2 hours at 37° C.; read-out: Jurkat HPD1-PDL1 IC50
How it was run: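 Compound was added to Jurkat-PD-1 cells in DMEM plus 10% fetal calf serum and incubated 2 hours at 37° C. Binding of phycoerythrin-conjugated PD-L1-Ig (20 nM final) to the cells was imaged.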

T1 sequence (Q15116 25-288): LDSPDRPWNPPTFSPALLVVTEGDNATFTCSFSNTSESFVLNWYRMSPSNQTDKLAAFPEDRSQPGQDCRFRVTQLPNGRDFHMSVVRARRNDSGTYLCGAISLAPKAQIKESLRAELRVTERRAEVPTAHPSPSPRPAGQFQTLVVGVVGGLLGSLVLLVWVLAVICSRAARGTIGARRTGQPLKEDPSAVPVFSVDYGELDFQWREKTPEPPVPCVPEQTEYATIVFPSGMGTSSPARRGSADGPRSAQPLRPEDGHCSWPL

Structure (SMILES)	IC50 [nM]
CC(C)C[C@@H]1NC(=O)[C@H](Cc2c[nH]c3ccccc23)NC(=O)[C@H](CC(=O)O)NC(=O)[C@H](Cc2ccc(O)cc2)NC(=O)[C@H](Cc2ccccc2)NC(=O)CSC[C@@H](C(=O)NCC(N)=O)NC(=O)[C@H](CCCNC(=N)N)NC(=O)[C@H](C(C)C)NC(=O)[C@H](CC(C)C)NC(=O)[C@H](CC(N)=O)NC(=O)CN(C)C(=O)[C@H](C)N(C)C(=O)[C@H](C(C)C)NC(=O)[C@H](Cc2ccc(-c3ccccc3)cc2)NC1=O [Example 1226] ({CH2CO}-FYDWL[Bip]V[NMeA][Sar]NLVRCG-NH2; thioether N-14)	890
CCCC[C@@H]1NC(=O)[C@H](C(C)C)NC(=O)[C@H](Cc2ccccc2)N(C)C(=O)[C@H](CC(=O)O)NC(=O)[C@H](CCCNC(=N)N)NC(=O)[C@H](Cc2ccc(-c3ccccc3)cc2)NC(=O)[C@H](C(C)C)NC(=O)[C@H](Cc2c[nH]c3ccccc23)NC(=O)[C@H](CC(=O)O)NC(=O)[C@H](Cc2ccc(O)cc2)NC(=O)[C@H](Cc2ccccc2)NC(=O)CSC[C@@H](C(=O)NCC(N)=O)NC(=O)[C@H](CO)NC(=O)[C@H](C(C)C)NC1=O [Example 1227] ({CH2CO}-FYDWV[Bip]RD[NMeF]V[Nle]VSCG-NH2; thioether N-14)	650
CC(C)C[C@@H]1NC(=O)[C@H](Cc2c[nH]c3ccccc23)NC(=O)[C@H](CC(=O)O)NC(=O)[C@H](Cc2ccc(O)cc2)NC(=O)[C@H](Cc2ccccc2)NC(=O)CSC[C@@H](C(=O)NCC(N)=O)NC(=O)[C@H](CC(N)=O)NC(=O)[C@H](C(C)C)NC(=O)[C@H](CC(C)C)NC(=O)[C@H](CC(N)=O)NC(=O)CN(C)C(=O)[C@H](C)N(C)C(=O)[C@H](C(C)C)NC(=O)[C@H](Cc2ccc(-c3ccccc3)cc2)NC1=O [Example 1228] ({CH2CO}-FYDWL[Bip]V[NMeA][Sar]NLVNCG-NH2; thioether N-14)	720
CC(C)C[C@@H]1NC(=O)[C@H](CCCNC(=N)N)NC(=O)CN(C)C(=O)[C@H](C)N(C)C(=O)[C@H](C(C)C)NC(=O)[C@H](Cc2ccc(-c3ccccc3)cc2)NC(=O)[C@H](C(C)C)NC(=O)[C@H](Cc2c[nH]c3ccccc23)NC(=O)[C@H](CC(=O)O)NC(=O)[C@H](Cc2ccc(O)cc2)NC(=O)[C@H](Cc2ccccc2)NC(=O)CSC[C@@H](C(=O)NCC(N)=O)NC(=O)[C@H](CO)NC(=O)[C@H](C(C)C)NC1=O [Example 1230] ({CH2CO}-FYDWV[Bip]V[NMeA][Sar]RLVSCG-NH2; thioether N-14)	60
CC[C@@H]1NC(=O)[C@H](Cc2ccc(-c3ccccc3)cc2)NC(=O)[C@H](CC(C)C)NC(=O)[C@H](Cc2c[nH]c3ccccc23)NC(=O)[C@H](CC(=O)O)NC(=O)[C@H](Cc2ccc(O)cc2)NC(=O)[C@H](Cc2ccccc2)NC(=O)CSC[C@@H](C(=O)NCC(N)=O)NC(=O)[C@H](CO)NC(=O)[C@H](C(C)C)NC(=O)[C@H](CC(C)C)NC(=O)[C@H](CCCNC(=N)N)NC(=O)CN(C)C(=O)[C@H](CCCNC(=N)N)N(C)C1=O [Example 1234] ({CH2CO}-FYDWL[Bip][Abu][NMeR][Sar]RLVSCG-NH2; thioether N-14)	290
CC(C)C[C@@H]1NC(=O)[C@H](C(C)C)NC(=O)CN(C)C(=O)[C@H](C)N(C)C(=O)[C@H](C(C)C)NC(=O)[C@H](Cc2ccc(-c3ccccc3)cc2)NC(=O)[C@H](Cc2ccc(O)cc2)NC(=O)[C@H](Cc2c[nH]c3ccccc23)NC(=O)[C@H](CC(=O)O)NC(=O)[C@H](Cc2ccc(O)cc2)NC(=O)[C@H](Cc2ccccc2)NC(=O)CSC[C@@H](C(=O)NCC(N)=O)NC(=O)[C@H](CO)NC(=O)[C@H](C(C)C)NC1=O [Example 1235] ({CH2CO}-FYDWY[Bip]V[NMeA][Sar]VLVSCG-NH2; thioether N-14)	110
CC(C)C[C@@H]1NC(=O)[C@H](CCCNC(=N)N)NC(=O)[C@H](Cc2ccccc2)N(C)C(=O)[C@H](C)N(C)C(=O)[C@H](CCCNC(=N)N)NC(=O)[C@H](Cc2ccc(-c3ccccc3)cc2)NC(=O)[C@H](C(C)C)NC(=O)[C@H](Cc2c[nH]c3ccccc23)NC(=O)[C@H](CC(=O)O)NC(=O)[C@H](Cc2ccccc2)NC(=O)[C@H](Cc2ccccc2)NC(=O)CSC[C@@H](C(=O)NCC(N)=O)NC(=O)[C@H](CO)NC(=O)[C@H](C(C)C)NC1=O [Example 1238] ({CH2CO}-FFDWV[Bip]R[NMeA][NMeF]RLVSCG-NH2; thioether N-14)	170
CC(C)C[C@@H]1NC(=O)[C@H](CCCNC(=N)N)NC(=O)[C@H](Cc2ccccc2)N(C)C(=O)[C@H](C)N(C)C(=O)[C@H](CN)NC(=O)[C@H](Cc2ccc(-c3ccccc3)cc2)NC(=O)[C@H](C(C)C)NC(=O)[C@H](Cc2c[nH]c3ccccc23)NC(=O)[C@H](CC(=O)O)NC(=O)[C@H](Cc2ccc(O)cc2)NC(=O)[C@H](Cc2ccccc2)NC(=O)CSC[C@@H](C(=O)NCC(N)=O)NC(=O)[C@H](CO)NC(=O)[C@H](C(C)C)NC1=O [Example 1242] ({CH2CO}-FYDWV[Bip][Dap][NMeA][NMeF]RLVSCG-NH2; thioether N-14)	240

More lines, in order of falling IC50, values ahead:

IC50 [nM]	Structure (SMILES)
900	CC(C)C[C@@H]1NC(=O)C(Cc2c[nH]c3ccccc23)NC(=O)[C@H](CC(=O)O)NC(=O)[C@H](Cc2ccc(O)cc2)NC(=O)[C@H](Cc2ccccc2)NC(=O)CSC[C@@H](C(=O)NCC(N)=O)NC(=O)[C@H](CO)NC(=O)[C@H](C(C)C)NC(=O)[C@H](CC(C)C)NC(=O)[C@H](CCCNC(=N)N)NC(=O)CN(C)C(=O)[C@H](C)N(C)C(=O)[C@H](CCCNC(=N)N)NC(=O)[C@H](Cc2ccc(-c3ccccc3)cc2)NC1=O (stereo partly shown) [Example 1231] ({CH2CO}-FYD[ξW]L[Bip]R[NMeA][Sar]RLVSCG-NH2; thioether N-14)
520	CC(C)C[C@@H]1NC(=O)[C@H](Cc2c[nH]c3ccccc23)NC(=O)[C@H](CC(=O)O)NC(=O)[C@H](Cc2ccc(O)cc2)NC(=O)[C@H](Cc2ccccc2)NC(=O)CSC[C@@H](C(=O)NCC(N)=O)NC(=O)[C@H](CO)NC(=O)[C@H](C(C)C)NC(=O)[C@H](CC(C)C)NC(=O)[C@H](CCCNC(=N)N)NC(=O)CN(C)C(=O)[C@H](C)N(C)C(=O)[C@H](CC(=O)O)NC(=O)[C@H](Cc2ccc(-c3ccccc3)cc2)NC1=O [Example 1237] ({CH2CO}-FYDWL[Bip]D[NMeA][Sar]RLVSCG-NH2; thioether N-14)
440	CC(C)C[C@@H]1NC(=O)[C@H](CC(N)=O)NC(=O)CN(C)C(=O)[C@H](CCCNC(=N)N)NC(=O)[C@H](C(C)C)NC(=O)[C@H](Cc2ccc(-c3ccccc3)cc2)NC(=O)[C@H](C(C)C)NC(=O)C(Cc2c[nH]c3ccccc23)NC(=O)[C@H](CC(=O)O)NC(=O)[C@H](Cc2ccc(O)cc2)NC(=O)[C@H](Cc2ccccc2)NC(=O)CSC[C@@H](C(=O)NCC(N)=O)NC(=O)[C@H](CO)NC(=O)[C@H](C(C)C)NC1=O (stereo partly shown) [Example 1229] ({CH2CO}-FYD[ξW]V[Bip]VR[Sar]NLVSCG-NH2; thioether N-14)
440	CC(C)C[C@@H]1NC(=O)[C@H](CCCNC(=N)N)NC(=O)CN(C)C(=O)[C@H](C)N(C)C(=O)[C@H](C(C)C)NC(=O)[C@H](Cc2ccc(-c3ccccc3)cc2)NC(=O)[C@H](Cc2ccc(O)cc2)NC(=O)[C@H](Cc2c[nH]c3ccccc23)NC(=O)[C@H](CC(=O)O)NC(=O)[C@H](Cc2ccc(O)cc2)NC(=O)[C@H](Cc2ccccc2)NC(=O)CSC[C@@H](C(=O)NCC(N)=O)NC(=O)[C@H](CO)NC(=O)[C@H](C(C)C)NC1=O [Example 1236] ({CH2CO}-FYDWY[Bip]V[NMeA][Sar]RLVSCG-NH2; thioether N-14)
330	CC(C)C[C@@H]1NC(=O)[C@H](Cc2c[nH]c3ccccc23)NC(=O)[C@H](CC(=O)O)NC(=O)[C@H](Cc2ccc(O)cc2)NC(=O)[C@H](Cc2ccccc2)NC(=O)CSC[C@@H](C(=O)NCC(N)=O)NC(=O)[C@H](CO)NC(=O)[C@H](C(C)C)NC(=O)[C@H](CC(C)C)NC(=O)[C@H](C(C)C)NC(=O)CN(C)C(=O)[C@H](C)N(C)C(=O)[C@H](CCCNC(=N)N)NC(=O)[C@H](Cc2ccc(-c3ccccc3)cc2)NC1=O [Example 1232] ({CH2CO}-FYDWL[Bip]R[NMeA][Sar]VLVSCG-NH2; thioether N-14)
270	CC(C)C[C@@H]1NC(=O)[C@H](CCCNC(=N)N)NC(=O)[C@H](Cc2ccccc2)N(C)C(=O)[C@H](C)N(C)C(=O)[C@H](CCCNC(=N)N)NC(=O)[C@H](Cc2ccc(-c3ccccc3)cc2)NC(=O)[C@H](C(C)C)NC(=O)[C@H](Cc2cccc(Cl)c2)NC(=O)[C@H](CC(=O)O)NC(=O)[C@H](Cc2ccc(O)cc2)NC(=O)[C@H](Cc2ccccc2)NC(=O)CSC[C@@H](C(=O)NCC(N)=O)NC(=O)[C@H](CO)NC(=O)[C@H](C(C)C)NC1=O [Example 1241] ({CH2CO}-FYD[Phe(3-Cl)]V[Bip]R[NMeA][NMeF]RLVSCG-NH2; thioether N-14)
170	CC(C)C[C@@H]1NC(=O)[C@H](CCCNC(=N)N)NC(=O)[C@H](Cc2ccccc2)N(C)C(=O)[C@H](C)N(C)C(=O)[C@H](CCCNC(=N)N)NC(=O)[C@H](Cc2ccc(-c3ccccc3)cc2)NC(=O)[C@H](C(C)C)NC(=O)[C@H](Cc2cccc3ccccc23)NC(=O)[C@H](CC(=O)O)NC(=O)[C@H](Cc2ccc(O)cc2)NC(=O)[C@H](Cc2ccccc2)NC(=O)CSC[C@@H](C(=O)NCC(N)=O)NC(=O)[C@H](CO)NC(=O)[C@H](C(C)C)NC1=O [Example 1240] ({CH2CO}-FYD[1Nal]V[Bip]R[NMeA][NMeF]RLVSCG-NH2; thioether N-14)
110	CC(C)C[C@@H]1NC(=O)[C@H](C(C)C)NC(=O)[C@H](Cc2ccccc2)N(C)C(=O)[C@H](C)N(C)C(=O)[C@H](CCCNC(=N)N)NC(=O)[C@H](Cc2ccc(-c3ccccc3)cc2)NC(=O)[C@H](C(C)C)NC(=O)[C@H](Cc2c[nH]c3ccccc23)NC(=O)[C@H](CC(=O)O)NC(=O)[C@H](Cc2ccc(O)cc2)NC(=O)[C@H](Cc2ccccc2)NC(=O)CSC[C@@H](C(=O)NCC(N)=O)NC(=O)[C@H](CO)NC(=O)[C@H](C(C)C)NC1=O [Example 1239] ({CH2CO}-FYDWV[Bip]R[NMeA][NMeF]VLVSCG-NH2; thioether N-14)

— US20240360178A1, “MACROCYCLIC IMMUNOMODULATORS” (Bristol-Myers Squibb Company, priority 2021, published 2024)
